Measured values taken from US20190100534A1, “Cephem Compounds with Latent Reactive Groups” (Gladius Pharmaceuticals, Inc., priority 2017, published 2019).

Experiments:
Assay type in all cases: cell-based
[1] = system: Isogenic E. coli J58 strain carrying TEM-26; assay: MIC determination, isogenic E. coli strains; conditions: for MIC: Escherichia coli, 18 h, read-out: Mimimum Inhibitory Concentrations, TEM-26
Procedure, shortened: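 E. coli J53 carried a pBC-SK(+) plasmid expressing TEM-26 β-lactamase. Compounds were serially halved from […] in CAMH broth containing 20 μM apo-transferrin, inoculated from a 0.5 McFarland culture and held overnight (18 h, 37° C); MIC read as the lowest concentration without visible growth.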

[2] = system: Isogenic E. coli J58 strain carrying KPC-3; assay: MIC determination, isogenic E. coli strains; conditions: for MIC: Escherichia coli, 18 h, read-out: Mimimum Inhibitory Concentrations, KPC-3
Procedure, shortened: (§1)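 Strain: E. coli J53 electroporated with a pBC-SK(+) plasmid encoding the KPC enzyme, selected on ampicillin. Twofold dilutions ([…]) were made in CAMH broth containing 20 μM apo-transferrin and inoculated at 0.5 McFarland. After overnight (18 h) growth at 37 °C, MIC was read as the lowest concentration with no visible growth.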

[3] = system: Isogenic E. coli J58 strain carrying KPC-2; assay: MIC determination, isogenic E. coli strains; conditions: for MIC: Escherichia coli, 18 h, read-out: Mimimum Inhibitory Concentrations, KPC-2
Procedure, shortened: as §1

[4] = system: Isogenic E. coli J58 strain carrying CTX-M-15; assay: MIC determination, isogenic E. coli strains; conditions: for MIC: Escherichia coli, 18 h, read-out: Mimimum Inhibitory Concentrations, CTX-M-15
Procedure, shortened: (§2)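 Isogenic E. coli J53 carrying plasmid-encoded CTX-M-14 or CTX-M-15 (ampicillin-selected), standardized to 0.08-0.1 OD600, incubated overnight (18 h, 37° C.) in CAMH broth plus 20 μM apo-transferrin over 2-fold compound dilutions starting at 64 μg/mL. Lowest concentration with no visible growth recorded as MIC.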

[5] = system: Isogenic E. coli J58 strain carrying CTX-M-14; assay: MIC determination, isogenic E. coli strains; conditions: for MIC: Escherichia coli, 18 h, read-out: Mimimum Inhibitory Concentrations, CTX-M-14
Procedure, shortened: as §2

[6] = system: Isogenic E. coli J58 strain carrying VIM-2; assay: MIC determination, isogenic E. coli strains; conditions: for MIC: Escherichia coli, 18 h, read-out: Mimimum Inhibitory Concentrations, VIM-2
Procedure, shortened: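 Broth microdilution in cation-adjusted Mueller-Hinton with 20 μM apo-transferrin, compound serially halved from 64 μg/mL, read by eye after 18 h at 37 °C as lowest clear well. Inoculum: VIM-2-expressing E. coli J53 (pBC-SK(+) plasmid), adjusted to 0.5 McFarland.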

[7] = system: Isogenic E. coli J58 strain carrying DHA-1; assay: MIC determination, isogenic E. coli strains; conditions: for MIC: Escherichia coli, 18 h, read-out: Mimimum Inhibitory Concentrations, DHA-1
Procedure, shortened: (§3)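 MIC read as the lowest compound level giving a transparent well after 18 h at 37° C. Strains: parent E. coli J53 and isogenic transformants expressing plasmid-borne (pBC-SK(+)) beta-lactamases such as DHA-1; inoculum 0.5 McFarland; CAMH broth plus 20 μM apo-transferrin; compound 64 μg/mL downward, 2-fold dilutions.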

E. coli J53 Alone = assay: MIC determination, isogenic E. coli strains; conditions: for MIC: Escherichia coli, J53ALONE, 18 h, read-out: Mimimum Inhibitory Concentrations, J53 Alone; for Mimimum Inhibitory Concentrations, J53 Alone: CAMH broth, 20 μM Apo-Transferrin, 37° C., 18 hours
Procedure, shortened: as §3

[8] = system: Isogenic E. coli J58 strain carrying SHV-1; assay: MIC determination, isogenic E. coli strains; conditions: for MIC: Escherichia coli, 18 h, read-out: Mimimum Inhibitory Concentrations, SHV-1
Procedure, shortened: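 MIC is the lowest compound concentration leaving a transparent well after overnight (18 h) incubation at 37 °C. The test strain was E. coli J53 expressing plasmid-borne SHV-1 beta-lactamase from pBC-SK(+), adjusted to 0.5 McFarland. Compounds were twofold serially diluted, starting at 64 μg/mL, in CAMH broth supplemented with 20 μM apo-transferrin.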

[9] = system: Isogenic E. coli J58 strain carrying IMP-1; assay: MIC determination, isogenic E. coli strains; conditions: for MIC: Escherichia coli, 18 h, read-out: Mimimum Inhibitory Concentrations, IMP-1
Procedure, shortened: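 Broth microdilution in cation-adjusted Mueller-Hinton broth with 20 μM apo-transferrin, compound serially diluted two-fold from 64 μg/mL, against E. coli J53 carrying plasmid-borne IMP-1. Inoculum adjusted to 0.5 McFarland; plates incubated 18 h at 37° C. MIC taken as lowest concentration giving a clear well.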

[10] = system: Isogenic E. coli J58 strain carrying NDM-1; assay: MIC determination, isogenic E. coli strains; conditions: for MIC: Escherichia coli, 18 h, read-out: Mimimum Inhibitory Concentrations, NDM-1
Procedure, shortened: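 Broth microdilution was run in cation-adjusted Mueller-Hinton broth supplemented with 20 μM apo-transferrin, using a 64 μg/mL top concentration diluted twofold. The inoculum was NDM-1-expressing E. coli J53 (pBC-SK(+) plasmid) at 0.5 McFarland. After overnight incubation (18 h, 37° C), the lowest compound concentration preventing visible growth was recorded as the MIC.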

[11] = system: Pseudomonas aeruginosa PA-RR-(G7294437); assay: MIC determination; conditions: PA-RR-(G7294437), CAMH broth, 20 μM Apo-Transferrin, 37° C., 18 hours; for MIC: Pseudomonas aeruginosa, read-out: Minimum Inhibitory Concentrations, PA-RR-(G7294437)
Procedure, shortened: (§4)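 Growth inhibition was judged by well clarity after 18 h at 37 °C in transferrin-supplemented (20 μM apo form) CAMH. Standardized suspensions (0.08-0.1 OD600) were added within 30 min of preparation.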

[12] = system: Pseudomonas aeruginosa PA (URMC-3); assay: MIC determination; conditions: PA (URMC-3), CAMH broth, 20 μM Apo-Transferrin, 37° C., 18 hours; for MIC: Pseudomonas aeruginosa, read-out: Minimum Inhibitory Concentrations, PA (URMC-3)
Procedure, shortened: as §4

[13] = system: Pseudomonas aeruginosa PA (RR-1); assay: MIC determination; conditions: PA (RR-1), CAMH broth, 20 μM Apo-Transferrin, 37° C., 18 hours; for MIC: Pseudomonas aeruginosa, read-out: Minimum Inhibitory Concentrations, PA (RR-1)
Procedure, shortened: as §4

[14] = system: Pseudomonas aeruginosa (PA); assay: MIC determination; conditions: PA, CAMH broth, 20 μM Apo-Transferrin, 37° C., 18 hours; for MIC: Pseudomonas aeruginosa, read-out: Minimum Inhibitory Concentrations, PA
Procedure, shortened: as §4

[15] = system: Pseudomonas aeruginosa PA-RR-(G7304100); assay: MIC determination; conditions: PA-RR-(G7304100), CAMH broth, 20 μM Apo-Transferrin, 37° C., 18 hours; for MIC: Pseudomonas aeruginosa, read-out: Minimum Inhibitory Concentrations, PA-RR-(G7304100)
Procedure, shortened: as §4

[16] = system: Pseudomonas aeruginosa PA-RR-(G8062859); assay: MIC determination; conditions: PA-RR-(G8062859), CAMH broth, 20 μM Apo-Transferrin, 37° C., 18 hours; for MIC: Pseudomonas aeruginosa, read-out: Minimum Inhibitory Concentrations, PA-RR-(G8062859)
Procedure, shortened: as §4

SMILES | MIC [1] | MIC [2] | MIC [3] | MIC [4] | MIC [5] | MIC [6] | MIC [7] | MIC (E. coli J53 Alone) | Mimimum Inhibitory Concentrations, J53 Alone (E. coli J53 Alone; Table 4-2) | MIC [8] | MIC [9] | MIC [10] | MIC [11] | MIC [12] | MIC [13] | MIC [14] | MIC [15] | MIC [16] | also measured
CC(C)(O/N=C(\C(=O)N[C@@H]1C(=O)N2C(C(=O)O)=C(C=Cc3ccc(C[N+](C)(C)Cc4ccc(O)c(O)c4Cl)cc3)CS[C@H]12)c1csc(N)n1)C(=O)O (mixture of isomers) [Compound 434, N-(4-((E/Z)-2-((6R,7R)-7-((Z)-2-(2-aminothiazol-4-yl)-2-(((2-carboxypropan-2-yl)oxy)imino)acetamido)-2-carboxy-8-oxo-5-thia-1-azabicyclo[4.2.0]oct-2-en-3-yl)vinyl)benzyl)-1-(2-chloro-3,4-dihydroxyphenyl)-N,N-dimethylmethanaminium] | 2 µg/mL | 64 µg/mL | 16 µg/mL | 0.5 µg/mL | 2 µg/mL | 2 µg/mL | 1 µg/mL | 0.25 µg/mL | 0.25 microgram/mL | 1 µg/mL | 0.25 µg/mL | > 64 µg/mL | 0.5 µg/mL | 16 µg/mL | 1 µg/mL | 4 µg/mL | 2 µg/mL | 2 µg/mL | 
CC(C)(O/N=C(\C(=O)N[C@@H]1C(=O)N2C(C(=O)O)=C(C=Cc3ccc(C[n+]4ccc5cc(O)c(O)cc5c4)cc3)CS[C@H]12)c1csc(N)n1)C(=O)O (mixture of isomers) [Compound 435, 2-(4-((E/Z)-2-((6R,7R)-7-((Z)-2-(2-aminothiazol-4-yl)-2-(((2-carboxypropan-2-yl)oxy)imino)acetamido)-2-carboxy-8-oxo-5-thia-1-azabicyclo[4.2.0]oct-2-en-3-yl)vinyl)benzyl)-6,7-dihydroxyisoquinolin-2-ium] |  |  |  |  |  |  |  |  | ≤0.06 microgram/mL |  |  |  |  |  |  |  |  |  | Mimimum Inhibitory Concentrations, TEM-26 ([1]; isogenic E. coli strain, TEM-26, CAMH broth, 20 μM Apo-Transferrin, 37° C., 18 hours): ≤0.06 microgram/mL; Mimimum Inhibitory Concentrations, KPC-3 ([2]; isogenic E. coli strain, KPC-3, CAMH broth, 20 μM Apo-Transferrin, 37° C., 18 hours): 0.13 microgram/mL; Mimimum Inhibitory Concentrations, KPC-2 ([3]; isogenic E. coli strain, KPC-2, CAMH broth, 20 μM Apo-Transferrin, 37° C., 18 hours): 0.25 microgram/mL; Mimimum Inhibitory Concentrations, CTX-M-15 ([4]; isogenic E. coli strain, CTX-M-15, CAMH broth, 20 μM Apo-Transferrin, 37° C., 18 hours): ≤0.06 microgram/mL; Mimimum Inhibitory Concentrations, CTX-M-14 ([5]; isogenic E. coli strain, CTX-M-14, CAMH broth, 20 μM Apo-Transferrin, 37° C., 18 hours): ≤0.06 microgram/mL; Mimimum Inhibitory Concentrations, VIM-2 ([6]; isogenic E. coli strain, VIM-2, CAMH broth, 20 μM Apo-Transferrin, 37° C., 18 hours): ≤0.06 microgram/mL; MICs for an E. coli strain carrying the gene for carbapenemase VIM-1, in words ([6]; review of Tables 4-1 and 4-2): low microgram/mL MICs; Mimimum Inhibitory Concentrations, DHA-1 ([7]; isogenic E. coli strain, DHA-1, CAMH broth, 20 μM Apo-Transferrin, 37° C., 18 hours): ≤0.06 microgram/mL; Mimimum Inhibitory Concentrations, J53 Alone (E. coli J53 Alone; Table 4-1): ≤0.06 microgram/mL; Mimimum Inhibitory Concentrations, SHV-1 ([8]; isogenic E. coli strain, SHV-1, CAMH broth, 20 μM Apo-Transferrin, 37° C., 18 hours): 0.13 microgram/mL; Mimimum Inhibitory Concentrations, IMP-1 ([9]; isogenic E. coli strain, IMP-1, CAMH broth, 20 μM Apo-Transferrin, 37° C., 18 hours): 0.13 microgram/mL; MICs for an E. coli strain carrying the gene for carbapenemase IMP-1, in words ([9]; review of Tables 4-1 and 4-2): low microgram/mL MICs; Mimimum Inhibitory Concentrations, NDM-1 ([10]; isogenic E. coli strain, NDM-1, CAMH broth, 20 μM Apo-Transferrin, 37° C., 18 hours): 2 microgram/mL; MICs for an E. coli strain carrying the gene for NDM-1, in words ([10]; review of Tables 4-1 and 4-2): lower MICS compared to other compounds tested; Minimum Inhibitory Concentrations, PA-RR-(G7294437) [11]: ≤0.06 microgram/mL; Minimum Inhibitory Concentrations, PA (URMC-3) [12]: ≤0.06 microgram/mL; Minimum Inhibitory Concentrations, PA (RR-1) [13]: 0.25 microgram/mL; Minimum Inhibitory Concentrations, PA [14]: ≤0.06 microgram/mL; Minimum Inhibitory Concentrations, PA-RR-(G7304100) [15]: ≤0.06 microgram/mL; Minimum Inhibitory Concentrations, PA-RR-(G8062859) [16]: 0.5 microgram/mL
CC(C)(O/N=C(\C(=O)N[C@@H]1C(=O)N2C(C(=O)O)=C(C=Cc3ccc(C[N+](C)(C)Cc4cc(O)c(O)c(Cl)c4)cc3)CS[C@H]12)c1csc(N)n1)C(=O)O (mixture of isomers) [Compound 436, N-(4-((E/Z)-2-((6R,7R)-7-((Z)-2-(2-aminothiazol-4-yl)-2-(((2-carboxypropan-2-yl)oxy)imino)acetamido)-2-carboxy-8-oxo-5-thia-1-azabicyclo[4.2.0]oct-2-en-3-yl)vinyl)benzyl)-1-(3-chloro-4,5-dihydroxyphenyl)-N,N-dimethylmethanaminium] | 2 µg/mL | 8 µg/mL | 64 µg/mL | 0.5 µg/mL | 1 µg/mL | 1 µg/mL | 0.25 µg/mL | 0.13 µg/mL | 0.13 microgram/mL | 1 µg/mL | 8 µg/mL | > 64 µg/mL | 0.5 µg/mL | 64 µg/mL | 2 µg/mL | 8 µg/mL | 4 µg/mL | 5 µg/mL | 
